Results from patent US9902722B2, “Biaryl kinase inhibitors” (BRISTOL-MYERS SQUIBB COMPANY, priority 2014, dated 2018).

The compounds below were run against GST-Xa-hAAK1 (Homo sapiens (Human), UniProt Q2M2I8) (assay: AAK1 Kinase Assay). Conditions: bacterially expressed GST-Xa-hAAK1 3.5 nM; ATP 22 μM; peptide substrate 1.5 μM; 3 hours at room temperature; Caliper LabChip 3000.
Assay type: biochemical
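Further: each compound tested across an eleven-point concentration series, with IC50 obtained through non-linear regression fitting.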
Method: The assays were performed in U-bottom 384-well plates. […] The reactions were initiated by the combination of bacterially expressed, GST-Xa-hAAK1 with substrates and test compounds. The reactions were incubated at room temperature for 3 hours and terminated by adding 60 μl of 35 mM EDTA buffer to each sample. […] Compounds were dissolved at 10 mM in dimethylsulfoxide (DMSO) and evaluated at eleven concentrations. IC50 values were derived by non-linear regression analysis.

Chain of GST-Xa-hAAK1 (Q2M2I8 whole entry): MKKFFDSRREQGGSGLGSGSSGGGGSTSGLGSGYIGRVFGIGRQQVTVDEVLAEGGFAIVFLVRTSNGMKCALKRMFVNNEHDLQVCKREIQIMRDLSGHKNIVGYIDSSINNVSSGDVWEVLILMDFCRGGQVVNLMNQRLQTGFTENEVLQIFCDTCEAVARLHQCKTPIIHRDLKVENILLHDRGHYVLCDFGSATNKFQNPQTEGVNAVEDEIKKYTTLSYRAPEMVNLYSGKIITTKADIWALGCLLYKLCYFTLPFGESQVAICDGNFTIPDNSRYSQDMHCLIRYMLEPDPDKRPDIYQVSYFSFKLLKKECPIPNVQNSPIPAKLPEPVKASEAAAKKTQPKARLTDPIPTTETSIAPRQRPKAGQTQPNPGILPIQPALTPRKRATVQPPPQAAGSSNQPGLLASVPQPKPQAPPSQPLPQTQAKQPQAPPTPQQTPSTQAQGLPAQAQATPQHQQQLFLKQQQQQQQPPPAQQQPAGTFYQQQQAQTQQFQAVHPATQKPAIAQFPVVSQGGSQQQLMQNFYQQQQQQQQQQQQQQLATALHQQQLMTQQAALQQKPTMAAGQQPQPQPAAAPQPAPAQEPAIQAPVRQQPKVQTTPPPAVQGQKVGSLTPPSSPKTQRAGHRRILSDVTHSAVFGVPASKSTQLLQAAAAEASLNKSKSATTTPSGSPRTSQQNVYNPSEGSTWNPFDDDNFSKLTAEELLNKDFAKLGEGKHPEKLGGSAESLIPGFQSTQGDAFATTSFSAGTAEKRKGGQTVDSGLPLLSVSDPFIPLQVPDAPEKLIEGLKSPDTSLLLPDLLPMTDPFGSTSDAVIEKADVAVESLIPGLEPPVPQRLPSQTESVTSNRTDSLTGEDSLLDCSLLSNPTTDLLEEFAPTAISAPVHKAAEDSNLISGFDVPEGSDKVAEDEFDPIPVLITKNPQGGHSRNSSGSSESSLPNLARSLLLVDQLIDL

SMILES | IC50 [nM]
CC(C)C[C@](C)(N)COc1ccc(-c2ccnc3ccccc23)cc1C(F)(F)F [Example 69, (S)-2,4-dimethyl-1-(4-(quinolin-4-yl)-2-(trifluoromethyl)phenoxy)pentan-2-amine] | 0.76
Cc1nc(-c2ccnc3cc(F)ccc23)ccc1OC[C@@](C)(N)CC(C)C [Example 137, (S)-1-((6-(7-fluoroquinolin-4-yl)-2-methylpyridin-3-yl)oxy)-2,4-dimethylpentan-2-amine] | 27
Cc1nc(-c2ccnc3ccccc23)ccc1OC[C@@](C)(N)CC(C)C [Example 81, (S)-2,4-dimethyl-1-((2-methyl-6-(quinolin-4-yl)pyridin-3-yl)oxy)pentan-2-amine] | 7.8
COC(=O)Nc1cc(-c2ccc(OC[C@@](C)(N)CC(C)C)c(CO)c2)ccn1 [Example 32, (S)-methyl (4-(4-((2-amino-2,4-dimethylpentyl)oxy)-3-(hydroxymethyl)phenyl)pyridin-2-yl)carbamate] | 4.5
CC(C)C[C@](C)(N)COc1ccc(-c2ccnc3ccc(F)cc23)nc1C(F)F [Example 127, (S)-1-((2-(difluoromethyl)-6-(6-fluoroquinolin-4-yl)pyridin-3-yl)oxy)-2,4-dimethylpentan-2-amine] | 6.2
Cc1cc(-c2cnc(OC[C@@](C)(N)CC(C)C)c(C(F)(F)F)c2)ccn1 [Example 221, (S)-2,4-dimethyl-1-((2′-methyl-5-(trifluoromethyl)-[3,4′-bipyridin]-6-yl)oxy)pentan-2-amine] | 4.1
CC(C)C[C@](C)(N)COc1cnc(-c2ccnc3ccc(F)cc23)cc1C(F)F [Example 132, (S)-1-((4-(difluoromethyl)-6-(6-fluoroquinolin-4-yl)pyridin-3-yl)oxy)-2,4-dimethylpentan-2-amine] | 1.5
CC(C)C[C@](C)(N)COc1cnc(-c2ccnc3ccccc23)cc1C(F)(F)F [Example 145, (S)-2,4-dimethyl-1-((6-(quinolin-4-yl)-4-(trifluoromethyl)pyridin-3-yl)oxy)pentan-2-amine] | 0.24
CC(C)C[C@](C)(N)COc1ccc(-c2ccnc(C(F)F)c2)cc1C(F)(F)F [Example 35, (S)-1-(4-(2-(difluoromethyl)pyridin-4-yl)-2-(trifluoromethyl)phenoxy)-2,4-dimethylpentan-2-amine] | 0.77
CC(C)C[C@](C)(N)COc1cnc(-c2ccnc3ccc(OC(F)(F)F)cc23)cc1C(F)F [Example 134, (S)-1-((4-(difluoromethyl)-6-(6-(trifluoromethoxy)quinolin-4-yl)pyridin-3-yl)oxy)-2,4-dimethylpentan-2-amine] | 4.4
COC(=O)Nc1cc(-c2ccc(OC[C@@](C)(N)CC(C)C)c(C#N)c2)c(F)cn1 [Example 106, (S)-methyl (4-(4-((2-amino-2,4-dimethylpentyl)oxy)-3-cyanophenyl)-5-fluoropyridin-2-yl)carbamate] | 0.62
CC(=O)Nc1cc(-c2ccc(OC[C@@H](N)CC(C)C)c(F)c2)ccn1 [Example 1, (S)—N-(4-(4-((2-amino-4-methylpentyl)oxy)-3-fluorophenyl)pyridin-2-yl)acetamide] | 2.7
COC(=O)Nc1cc(-c2ccc(OCC(C)(N)CC(C)C)c(Cl)c2)ccn1 (stereo not drawn) [Example 29, methyl (4-(4-((2-amino-2,4-dimethylpentyl)oxy)-3-chlorophenyl)pyridin-2-yl)carbamate] | 0.67
CC(=O)Nc1cc(-c2ccc(OC[C@@](C)(N)CC(C)C)c(C(F)(F)F)c2)ccn1 [Example 19, (S)—N-(4-(4-((2-amino-2,4-dimethylpentyl)oxy)-3-(trifluoromethyl)phenyl)pyridin-2-yl)acetamide] | 0.36
Cc1nccc(-c2ccc(OC[C@@](C)(N)CC(C)C)c(C(F)F)n2)n1 [Example 139, (S)-1-((2-(difluoromethyl)-6-(2-methylpyrimidin-4-yl)pyridin-3-yl)oxy)-2,4-dimethylpentan-2-amine] | 0.77
COC(=O)Nc1cc(-c2ccc(OC[C@@H](N)CC(C)C)c(-c3ccno3)c2)ccn1 [Example 14, (S)-methyl (4-(4-((2-amino-4-methylpentyl)oxy)-3-(isoxazol-5-yl)phenyl)pyridin-2-yl)carbamate] | 0.87
Cc1cc(-c2cc(C(F)F)c(OC[C@@](C)(N)CC(C)C)cn2)ccn1 [Example 122, (S)-1-((4-(difluoromethyl)-2′-methyl-[2,4′-bipyridin]-5-yl)oxy)-2,4-dimethylpentan-2-amine] | 0.51
CC(C)C[C@H](N)COc1ccc(-c2ccnc3ccccc23)cc1-c1ccno1 [Example 110, (S)-1-(2-(isoxazol-5-yl)-4-(quinolin-4-yl)phenoxy)-4-methylpentan-2-amine] | 3.5
CC(C)C[C@](C)(N)COc1ccc(-c2ccnc3ccc(F)cc23)cc1C(F)F [Example 116, (S)-1-(2-(difluoromethyl)-4-(6-fluoroquinolin-4-yl)phenoxy)-2,4-dimethylpentan-2-amine] | 0.93
CC(C)C[C@](C)(N)COc1ccc(-c2ccnc3ccncc23)cc1C#N [Example 86, (S)-2-((2-amino-2,4-dimethylpentyl)oxy)-5-(1,6-naphthyridin-4-yl)benzonitrile] | 1.2

SMILES | IC50 [nM]
COC(=O)Nc1cc(-c2cnc(OC[C@@](C)(N)CC(C)C)c(C(F)(F)F)c2)ccn1 [Example 220, (S)-methyl (6-((2-amino-2,4-dimethylpentyl)oxy)-5-(trifluoromethyl)-[3,4′-bipyridin]-2′-yl)carbamate] | 0.38
COC(=O)Nc1cc(-c2ccc(OC[C@@](C)(N)CC(C)C)c(C3CC3)c2)ccn1 [Example 33, (S)-methyl (4-(4-((2-amino-2,4-dimethylpentyl)oxy)-3-cyclopropylphenyl)pyridin-2-yl)carbamate] | 0.32
CC(C)C[C@](C)(N)COc1ccc(-c2ccnc3cc(C#N)ccc23)cc1C(F)(F)F [Example 89, (S)-4-(4-((2-amino-2,4-dimethylpentyl)oxy)-3-(trifluoromethyl)phenyl)quinoline-7-carbonitrile] | 0.66
Cc1cc(-c2ccnc3cc(Cl)ccc23)cnc1OC[C@@](C)(N)CC(C)C [Example 225, (S)-1-((5-(7-chloroquinolin-4-yl)-3-methylpyridin-2-yl)oxy)-2,4-dimethylpentan-2-amine] | 0.74
CC(C)C[C@](C)(N)COc1ccc(C2=CCOCC2)cc1C(F)(F)F [Example 215, (S)-1-(4-(3,6-dihydro-2H-pyran-4-yl)-2-(trifluoromethyl)phenoxy)-2,4-dimethylpentan-2-amine] | 197
Cc1cc(-c2ccc(OC[C@@](C)(N)CC(C)C)c(S(C)(=O)=O)c2)ccn1 [Example 114, (S)-2,4-dimethyl-1-(4-(2-methylpyridin-4-yl)-2-(methylsulfonyl)phenoxy)pentan-2-amine] | 1400
Cc1nccc(-c2ccc(OC[C@@](C)(N)CC(C)C)c(C#N)c2)c1F [Example 103, (S)-2-((2-amino-2,4-dimethylpentyl)oxy)-5-(3-fluoro-2-methylpyridin-4-yl)benzonitrile] | 0.68
CC(C)C[C@](C)(N)COc1ccc(-c2ccnc3[nH]ccc23)cc1C(F)(F)F [Example 84, (S)-1-(4-(1H-pyrrolo[2,3-b]pyridin-4-yl)-2-(trifluoromethyl)phenoxy)-2,4-dimethylpentan-2-amine] | 2.2
CC(C)C[C@](C)(N)COc1ncc(-c2ccnc3cc(F)ccc23)cc1Cl [Example 190, (S)-1-((3-chloro-5-(7-fluoroquinolin-4-yl)pyridin-2-yl)oxy)-2,4-dimethylpentan-2-amine] | 1.2
CC(=O)Nc1cc(-c2ccc(OC[C@@H](N)CC(C)C)c(OC(F)(F)F)c2)ccn1 [Example 6, (S)—N-(4-(4-((2-amino-4-methylpentyl)oxy)-3-(trifluoromethoxy)phenyl)pyridin-2-yl)acetamide] | 0.47
COC(=O)Nc1cc(-c2ccc(OC[C@@](C)(N)CC(C)C)c(F)c2)ccn1 [Example 28, (S)-methyl (4-(4-((2-amino-2,4-dimethylpentyl)oxy)-3-fluorophenyl)pyridin-2-yl)carbamate] | 1.2
CC(C)C[C@](C)(N)COc1ccc(-c2ccnc3cc(C(F)(F)F)ccc23)cc1C(F)(F)F [Example 70, (S)-2,4-dimethyl-1-(2-(trifluoromethyl)-4-(7-(trifluoromethyl)quinolin-4-yl)phenoxy)pentan-2-amine] | 2.3
Cc1cc(-c2cc(Cl)c(OC[C@@](C)(N)CC(C)C)cn2)ccn1 [Example 238, (S)-1-((4-chloro-2′-methyl-[2,4′-bipyridin]-5-yl)oxy)-2,4-dimethylpentan-2-amine] | 2.1
Cc1cc(-c2ccc(OC[C@@](C)(N)CC(C)C)c(C(F)F)n2)ccn1 [Example 119, (S)-1-((6-(difluoromethyl)-2′-methyl-[2,4′-bipyridin]-5-yl)oxy)-2,4-dimethylpentan-2-amine] | 3.2
Cc1cc(-c2ccc(OC[C@@H](N)CC(C)C)c(-c3ccno3)c2)ccn1 [Example 18, (S)-1-(2-(isoxazol-5-yl)-4-(2-methylpyridin-4-yl)phenoxy)-4-methylpentan-2-amine] | 5
Cc1cc(-c2ccnc3cc(F)cc(F)c23)cnc1OC[C@@](C)(N)CC(C)C [Example 224, (S)-1-((5-(5,7-difluoroquinolin-4-yl)-3-methylpyridin-2-yl)oxy)-2,4-dimethylpentan-2-amine] | 1.1
Cc1cc(-c2ccc(OC[C@@](C)(N)CC(C)C)c(C)n2)ccn1 [Example 65, (S)-1-((2′,6-dimethyl-[2,4′-bipyridin]-5-yl)oxy)-2,4-dimethylpentan-2-amine] | 42
CC(C)C[C@](C)(N)COc1cnc(-c2ccnc3ccc(C(F)(F)F)cc23)cc1C(F)F [Example 133] | 0.92
Cc1cc(-c2cc(C(F)F)c(OC[C@](N)(CF)CC(C)C)cn2)ccn1 [Example 187, (S)-1-((4-(difluoromethyl)-2′-methyl-[2,4′-bipyridin]-5-yl)oxy)-2-(fluoromethyl)-4-methylpentan-2-amine] | 2.2
